According to patent US20240327408A1, “COMPOUNDS CONTAINING TETRAHYDRONAPHTHYRIDINONE OR TETRAHYDROPYRIDOPYRIMIDINONE SKELETON, PREPARATION METHOD THEREFOR AND PHARMACEUTICAL USE THEREOF” (CHINA PHARMACEUTICAL UNIVERSITY, priority 2021, published 2024):

Key:
[1] = target: T1, hClpP (Homo sapiens, UniProt Q16740); assay: activating ClpP hydrolysis of FITC-casein (fluorescence kinetic detection); assay type: biochemical; conditions: hClpP 1 μM, FITC-Casein 4 μM, 37° C.
T1 construct: made in house
Procedure, shortened: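 hClpP at 1 μM final preincubated with compounds (assay-buffer dilutions 200 μM–2 nM, before mixing) 30 min at 37 °C, then 4 μM final FITC-casein added. Fluorescence read kinetically at 37 °C every 1 min for 15 min, duplicate wells.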

[2] = tested on: MV4; 11 cells; assay: inhibiting the growth of MV4; 11 cells; assay type: cell-based; conditions: Homo sapiens

T1 sequence (Q16740 57-277): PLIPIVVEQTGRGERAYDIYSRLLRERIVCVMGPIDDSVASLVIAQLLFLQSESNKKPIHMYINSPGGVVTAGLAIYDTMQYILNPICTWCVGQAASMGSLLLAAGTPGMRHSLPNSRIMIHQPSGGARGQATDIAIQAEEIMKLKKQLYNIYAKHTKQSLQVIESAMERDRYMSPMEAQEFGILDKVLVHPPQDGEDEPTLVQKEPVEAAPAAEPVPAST

Structure (SMILES)	EC50 [1] [µM]	IC50 [2] [µM]
COc1ccc(Cn2c(=O)c3c(n4ccnc24)CCN(Cc2cccc(Cl)c2)C3)cc1 [Compound I-144, 7-(3-chlorobenzyl)-4-(4-methoxybenzyl)-6,7,8,9-tetrahydroimidazo[1,2-a]pyrido[3,4-e]pyrimidine-5(4H)-one]	< 1	< 1
O=c1c2c(n3ccnc3n1Cc1ccc3c(c1)OCO3)CCN(Cc1cccc(Cl)c1)C2 [Compound I-147, 7-(3-chlorobenzyl)-4-([1,3]benzodioxol-5-ylmethyl)-6,7,8,9-tetrahydroimidazo[1,2-a]pyrido[3,4-e]pyrimidine-5(4H)-one]	1 to 10	1 to 10
O=c1c2c(n3ccnc3n1Cc1ccc3c(c1)OCCO3)CCN(Cc1cccc(Cl)c1)C2 [Compound I-148, 7-(3-chlorobenzyl)-4-((2,3-dihydro[1,4]benzodioxin-6-yl)methyl)-6,7,8,9-tetrahydroimidazo[1,2-a]pyrido[3,4-e]pyrimidine-5(4H)-one]	1 to 10	1 to 10
O=c1c2c(n3ncnc3n1Cc1ccc(C(F)(F)F)cc1)CCN(Cc1ccccc1)C2 [Compound I-149, 4-(4-trifluoromethylbenzyl)-7-benzyl-6,7,8,9-tetrahydropyrido[3,4-e][1,2,4]triazolo[1,5-a]pyrimidine-5(4H)-one]	1 to 10	1 to 10
N#Cc1cccc(CN2CCc3c(c(=O)n(Cc4ccc(C(F)(F)F)cc4)c4ncnn34)C2)c1 [Compound I-151, 4-(4-trifluoromethylbenzyl)-7-(3-cyanobenzyl)-6,7,8,9-tetrahydropyrido[3,4-e][1,2,4]triazolo[1,5-a]pyrimidine-5(4H)-one]	1 to 10	1 to 10
O=c1c2c(n3ncnc3n1Cc1ccc(Cl)cc1)CCN(Cc1ccccc1)C2 [Compound I-152, 4-(4-chlorobenzyl)-7-benzyl-6,7,8,9-tetrahydropyrido[3,4-e][1,2,4]triazolo[1,5-a]pyrimidine-5(4H)-one]	1 to 10	1 to 10
O=c1c2c(n3ncnc3n1Cc1ccc(Cl)cc1)CCN(Cc1cccc(Cl)c1)C2 [Compound I-154, 4-(4-chlorobenzyl)-7-(3-chlorobenzyl)-6,7,8,9-tetrahydropyrido[3,4-e][1,2,4]triazolo[1,5-a]pyrimidine-5(4H)-one]	1 to 10	1 to 10
N#Cc1cccc(CN2CCc3c(c(=O)n(Cc4ccc(C(F)(F)F)cc4)c4ccnn34)C2)c1 [Compound I-160, 4-(4-trifluoromethylbenzyl)-7-(3-cyanobenzyl)-6,7,8,9-tetrahydropyrazolo[1,5-a]pyrido[3,4-e]pyrimidine-5(4H)-one]	1 to 10	1 to 10
O=c1c2c(n3nccc3n1Cc1ccc(Cl)cc1)CCN(Cc1ccccc1)C2 [Compound I-161, 4-(4-chlorobenzyl)-7-benzyl-6,7,8,9-tetrahydropyrazolo[1,5-a]pyrido[3,4-e]pyrimidine-5(4H)-one]	1 to 10	1 to 10
O=c1c2c(n3nccc3n1Cc1ccc(Cl)cc1)CCN(Cc1cccc(Cl)c1)C2 [Compound I-162, 4-(4-chlorobenzyl)-7-(3-chlorobenzyl)-6,7,8,9-tetrahydropyrazolo[1,5-a]pyrido[3,4-e]pyrimidine-5(4H)-one]	1 to 10	1 to 10
O=c1c2c(n3cncc3n1Cc1ccc(C(F)(F)F)cc1)CCN(Cc1ccccc1)C2 [Compound I-164, 7-benzyl-4-(4-trifluoromethylbenzyl)-6,7,8,9-tetrahydroimidazo[1,5-a]pyrido[3,4-e]pyrimidine-5(4H)-one]	1 to 10	1 to 10
N#Cc1cccc(CN2CCc3c(c(=O)n(Cc4ccc(C(F)(F)F)cc4)c4cncn34)C2)c1 [Compound I-165, 7-(3-cyanobenzyl)-4-(4-trifluoromethylbenzyl)-6,7,8,9-tetrahydroimidazo[1,5-a]pyrido[3,4-e]pyrimidine-5(4H)-one]	1 to 10	1 to 10
O=c1c2c(n3cncc3n1Cc1ccc(Cl)cc1)CCN(Cc1cccc(Cl)c1)C2 [Compound I-166, 7-(3-chlorobenzyl)-4-(4-chlorobenzyl)-6,7,8,9-tetrahydroimidazo[1,5-a]pyrido[3,4-e]pyrimidine-5(4H)-one]	1 to 10	1 to 10

Second part, the compound after the results:

EC50 [1] [µM]	IC50 [2] [µM]	Structure (SMILES)
< 1	< 1	COc1ccc(Cn2c(=O)c3c(n4ccnc24)CCN(Cc2cccc(C)c2)C3)cc1 [Compound I-145, 7-(3-methylbenzyl)-4-(4-methoxybenzyl)-6,7,8,9-tetrahydroimidazo[1,2-a]pyrido[3,4-e]pyrimidine-5(4H)-one]
< 1	< 1	COc1ccc(Cn2c(=O)c3c(n4ccnc24)CCN(Cc2cccc(C#N)c2)C3)cc1 [Compound I-146, 7-(3-cyanobenzyl)-4-(4-methoxybenzyl)-6,7,8,9-tetrahydroimidazo[1,2-a]pyrido[3,4-e]pyrimidine-5(4H)-one]
1 to 10	1 to 10	O=c1c2c(n3ncnc3n1Cc1ccc(C(F)(F)F)cc1)CCN(Cc1cccc(Cl)c1)C2 [Compound I-150, 4-(4-trifluoromethylbenzyl)-7-(3-chlorobenzyl)-6,7,8,9-tetrahydropyrido[3,4-e][1,2,4]triazolo[1,5-a]pyrimidine-5(4H)-one]
1 to 10	1 to 10	O=c1c2c(n3ncnc3n1Cc1ccc(Cl)cc1)CCN(Cc1cccc(F)c1)C2 [Compound I-153, 4-(4-chlorobenzyl)-7-(3-fluorobenzyl)-6,7,8,9-tetrahydropyrido[3,4-e][1,2,4]triazolo[1,5-a]pyrimidine-5(4H)-one]
1 to 10	1 to 10	N#Cc1cccc(CN2CCc3c(c(=O)n(Cc4ccc(Cl)cc4)c4ncnn34)C2)c1 [Compound I-155, 4-(4-chlorobenzyl)-7-(3-cyanobenzyl)-6,7,8,9-tetrahydropyrido[3,4-e][1,2,4]triazolo[1,5-a]pyrimidine-5(4H)-one]
1 to 10	1 to 10	O=c1c2c(n3nccc3n1Cc1ccccc1)CCN(Cc1cccc(Cl)c1)C2 [Compound I-156, 4-benzyl-7-(3-chlorobenzyl)-6,7,8,9-tetrahydropyrazolo[1,5-a]pyrido[3,4-e]pyrimidine-5(4H)-one]
1 to 10	1 to 10	N#Cc1cccc(CN2CCc3c(c(=O)n(Cc4ccccc4)c4ccnn34)C2)c1 [Compound I-157, 4-benzyl-7-(3-cyanobenzyl)-6,7,8,9-tetrahydropyrazolo[1,5-a]pyrido[3,4-e]pyrimidine-5(4H)-one]
1 to 10	1 to 10	Cc1cccc(CN2CCc3c(c(=O)n(Cc4ccccc4)c4ccnn34)C2)c1 [Compound I-158, 4-benzyl-7-(3-methylbenzyl)-6,7,8,9-tetrahydropyrazolo[1,5-a]pyrido[3,4-e]pyrimidine-5(4H)-one]
1 to 10	1 to 10	O=c1c2c(n3nccc3n1Cc1ccc(C(F)(F)F)cc1)CCN(Cc1ccccc1)C2 [Compound I-159, 4-(4-trifluoromethylbenzyl)-7-benzyl-6,7,8,9-tetrahydropyrazolo[1,5-a]pyrido[3,4-e]pyrimidine-5(4H)-one]
1 to 10	1 to 10	N#Cc1cccc(CN2CCc3c(c(=O)n(Cc4ccc(Cl)cc4)c4ccnn34)C2)c1 [Compound I-163, 4-(4-chlorobenzyl)-7-(3-cyanobenzyl)-6,7,8,9-tetrahydropyrazolo[1,5-a]pyrido[3,4-e]pyrimidine-5(4H)-one]
